PMC9738727, “Purification and Characterization of Novel Anti-MRSA Peptides Produced by Brevibacillus sp. SPR-20” (Molecules, 2022)
Ends that are not written are not given here.

Assays:
[1] = test system: S. aureus TISTR 517; assay: Proteolytic enzyme stability, remaining activity by agar well diffusion; type: in vitro ADME, Staphylococcus aureus; settings: proteinase K, trypsin, α-chymotrypsin, both test strains
Protocol: (§1) The antimicrobial activity was measured by an agar well diffusion test with some modified methods. In brief, single colonies of the tested strains were suspended in 0.85% NaCl, and then the OD at 625 nm was adjusted to 0.1. The cell suspensions were spread on MH agar, and the tested samples (100 μL) were introduced into each well before incubation at 37 °C for 24 h. Each experiment was performed in three independent replicates, and the inhibition zone was measured and expressed as mean ± SD.
The stability of the anti-MRSA peptide against several conditions was studied. […] The sensitivity of the peptide sample to proteolytic enzymes was investigated by incubating the sample with proteinase K, trypsin, and α-chymotrypsin (1 mg/mL) for 1 h. Surfactant compatibility of the substance was examined by incubating the sample with 1% SDS and 1% Triton X-100 for 1 h (AppliChem GmbH, Darmstadt, Germany). The acid and base hydrolysis property of the substance was assessed by pH adjustment to 2–14 for 1 h before the samples were neutralized to pH 7. […] The stability profiles were presented as the percentage of activity relative to the untreated condition (mean ± SD), and significant difference was determined by the Student’s t-test at a p-value < 0.05.

[2] = test system: S. aureus TISTR 517; assay: Killing kinetics; type: cell-based, Staphylococcus aureus; settings: for killing half-time / rate constant of cell death within 24 h: linear regression; for time of eradication effect: strain not named in the sentence (tested bacteria)
Protocol: (§2) S. aureus TISTR 517 and MRSA isolate 2468 were cultured in CAMHB and standardized to obtain the cell number of 5 × 10^5 CFU/mL for initial treatment. […] The reactions were incubated at 37 °C, and then the total volume was spread on MH agar at specific time intervals (0–24 h). The plates were incubated at 37 °C for 24 h before colony count. […] The rate constant of cell death within 24 h and the killing half-time were calculated based on slope and linear regression relationship, respectively. Each experiment was performed in triplicate in 96-well plates. Significant differences (p-value < 0.05) were analyzed by two-way ANOVA and post hoc Tukey’s test for multiple comparisons between treated and non-treated samples.

[3] = test system: MRSA isolate 2468; assay: Killing kinetics; type: cell-based, Staphylococcus aureus; settings: for killing half-time / rate constant of cell death within 24 h: linear regression
Protocol: as §2

[4] = test system: S. aureus TISTR 517; assay: Thermal, surfactant and pH stability, remaining activity by agar well diffusion; type: physicochemical, Staphylococcus aureus; settings: for % Remaining Activity: P1 15 μg/mL, vancomycin 300 μg/mL, mean ± SD, n=3
Protocol: as §1
(§3) The stability of the anti-MRSA peptide against several conditions was studied. […] The sensitivity of the peptide sample to proteolytic enzymes was investigated by incubating the sample with proteinase K, trypsin, and α-chymotrypsin (1 mg/mL) for 1 h. Surfactant compatibility of the substance was examined by incubating the sample with 1% SDS and 1% Triton X-100 for 1 h (AppliChem GmbH, Darmstadt, Germany). The acid and base hydrolysis property of the substance was assessed by pH adjustment to 2–14 for 1 h before the samples were neutralized to pH 7. After all treatments, the antimicrobial assay by agar well diffusion against S. aureus TISTR 517 and MRSA isolate 2468 was performed in three independent experiments. The stability profiles were presented as the percentage of activity relative to the untreated condition (mean ± SD), and significant difference was determined by the Student’s t-test at a p-value < 0.05.

[5] = test system: MRSA isolate 2468; assay: as above; type: physicochemical, Staphylococcus aureus; settings: P1 15 μg/mL, vancomycin 300 μg/mL, mean ± SD, n=3
Protocol: as §1, §3

[6] = test system: S. aureus TISTR 517; assay: Cell lysis (OD 625 nm), leakage of genetic materials (A260) and viable count; type: cell-based, Staphylococcus aureus
Protocol: The lysis of bacterial cells was monitored by measuring the OD reduction at 625 nm, whereas the leakage of genetic material was evaluated by measuring the absorbance at 260 nm. Briefly, the bacterial colonies were collected from MH agar and then washed with PBS pH 7.4 three times. The OD at 625 nm of the washed cells was adjusted to 0.35 with PBS pH 7.4 supplemented with an incomplete medium (4% CAMHB) before the cells were transferred to a 96-well plate (100 μL/well). […] For each treatment condition at different time intervals, the reduction in OD at 625 nm was determined, and the supernatant of the treated samples was collected to measure the absorbance at 260 nm. The experiment was performed in triplicate, and the results were expressed as mean ± SD. Two-way ANOVA and post hoc Tukey’s test (p-value < 0.05) were used to determine the significance of differences between treated and non-treated samples.

[7] = 60 °C, 1 h, % of untreated sample
[8] = 80 °C, 1 h, % of untreated sample
[9] = 100 °C, 1 h, % of untreated sample
[10] = […], 15 psi, 15 min (autoclave), % of untreated sample
[11] = pH 2, 1 h, then neutralized to pH 7
[12] = pH 4, 1 h, then neutralized to pH 7
[13] = pH 5, 1 h, then neutralized to pH 7
[14] = pH 6, 1 h, then neutralized to pH 7
[15] = pH 8, 1 h, then neutralized to pH 7
[16] = pH 9, 1 h, then neutralized to pH 7
[17] = pH 11, 1 h, then neutralized to pH 7
[18] = pH 12, 1 h, then neutralized to pH 7
[19] = pH 13, 1 h, then neutralized to pH 7
[20] = pH 14, 1 h, then neutralized to pH 7
[21] = sample + 1% SDS, 1 h, % of untreated sample
[22] = sample + 1% Triton X-100, 1 h, % of untreated sample

VVVNVLVKVLPPPVV [Peptide P1]
activity when incubated with proteolytic enzymes [1]: more than 90% | killing half-time ([2]; 1× MIC): 25.36 h | rate constant of cell death within 24 h ([2]; 1× MIC): -0.11 h⁻¹ | killing half-time ([2]; 2× MIC): 11.08 h | rate constant of cell death within 24 h ([2]; 2× MIC): -0.26 h⁻¹ | time of eradication effect ([2]; 2× MIC): 24 h | reduction rate of viable cells ([2]; 3-24 h, 1× MIC): 0.12 h⁻¹ | reduction rate of viable cells ([2]; 3-24 h, 2× MIC): 0.23 h⁻¹ | reduction rate of viable cells ([2]; 3-24 h, 4× MIC): 0.31 h⁻¹ | killing half-time ([2]; 4× MIC, 95% CI 5.35 to 20.12): 9.80 h | rate constant of cell death within 24 h ([2]; 4× MIC, 95% CI −0.16 to −0.38): -0.27 h⁻¹ | time of eradication effect ([2]; 4× MIC): 18 h | reduction rate of viable cells ([2]; first 3 h, all peptide concentrations (1×, 2×, 4× MIC)): 0.14 h⁻¹ | killing half-time ([3]; 1× MIC): 47.75 h | rate constant of cell death within 24 h ([3]; 1× MIC): -0.06 h⁻¹ | killing half-time ([3]; 2× MIC): 13.21 h | rate constant of cell death within 24 h ([3]; 2× MIC): -0.23 h⁻¹ | inhibition rate ([3]; 4× MIC, during 3–12 h): 0.32 h⁻¹ | killing half-time ([3]; 4× MIC, 95% CI 5.67 to 18.47): 9.78 h | rate constant of cell death within 24 h ([3]; 4× MIC, 95% CI −0.17 to −0.36): -0.27 h⁻¹ | inhibition rate ([3]; after 6 h of treatment, 1× MIC): 0.06 h⁻¹ | inhibition rate ([3]; after 6 h of treatment, 2× MIC): 0.24 h⁻¹ | reduction rate of viable cells ([3]; first 3 h): 0.10 h⁻¹ | % Remaining Activity [4, 7]: 100.49 ± 0.84% | % Remaining Activity [4, 8]: 100.00 ± 0.84% | % Remaining Activity [4, 9]: 100.00 ± 0.84% | % Remaining Activity [4, 10]: 98.54 ± 1.69% | % Remaining Activity [4, 11]: 98.48 ± 3.17% | % Remaining Activity [4, 12]: 97.97 ± 5.77% | % Remaining Activity [4, 13]: 97.46 ± 2.64% | % Remaining Activity [4, 14]: 97.97 ± 3.17% | % Remaining Activity ([4]; pH 7, 1 h): 97.97 ± 1.76% | % Remaining Activity [4, 15]: 102.54 ± 3.17% | % Remaining Activity [4, 16]: 100.00 ± 1.49% | % Remaining Activity [4, 17]: 98.01 ± 2.28% | % Remaining Activity [4, 18]: 96.52 ± 2.28% | % Remaining Activity [4, 19]: 98.51 ± 1.49% | % Remaining Activity [4, 20]: 101.00 ± 1.72% | % Remaining Activity [4, 21]: 114.49 ± 3.53 % | % Remaining Activity [4, 22]: 125.23 ± 2.92 % | activity remaining under several stress conditions ([4]; text summary of Table 6, both test strains): over 90% | % Remaining Activity [5, 7]: 100.00 ± 0.79% | % Remaining Activity [5, 8]: 99.08 ± 0.00% | % Remaining Activity [5, 9]: 98.62 ± 0.79% | % Remaining Activity [5, 10]: 98.62 ± 0.79% | % Remaining Activity [5, 11]: 97.57 ± 1.46% | % Remaining Activity [5, 12]: 99.03 ± 1.46% | % Remaining Activity [5, 13]: 97.09 ± 1.68% | % Remaining Activity [5, 14]: 97.57 ± 3.85% | % Remaining Activity ([5]; pH 7, 1 h): 97.57 ± 5.25% | % Remaining Activity [5, 15]: 97.09 ± 2.22% | % Remaining Activity [5, 16]: 98.03 ± 1.71% | % Remaining Activity [5, 17]: 98.03 ± 2.26% | % Remaining Activity [5, 18]: 97.54 ± 0.00% | % Remaining Activity [5, 19]: 99.51 ± 0.85% | % Remaining Activity [5, 20]: 100.00 ± 3.08% | % Remaining Activity [5, 21]: 117.13 ± 1.60 % | % Remaining Activity [5, 22]: 115.74 ± 0.80 % | increase of genetic content in the supernatant (A260) ([6]; 30 min, 1×-4× MIC): 1.09–1.60 times | inhibition by viable cell count ([6]; 24 h, 1× MIC): 8.60 ± 0.26% | cell lysis ([6]; 24 h, 1×-4× MIC): more than 39.67% | increase of genetic release (A260) ([6]; 24 h, 1×-4× MIC): 2.05–2.29 times | inhibition by viable cell count ([6]; 24 h, 2× MIC): 67.63 ± 1.96% | inhibition by viable cell count ([6]; 24 h, 4× MIC): 94.35 ± 9.78% | cells destroyed (OD 625 nm reduction) ([6]; first hour, 1× MIC, PBS pH 7.4 + 4% CAMHB, mean ± SD, triplicate): 21.08 ± 1.11%
